Results as given in ChEMBL document CHEMBL1201862, “PubChem BioAssay data set” (2004).
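Where inhibition never reached the appropriate level, the endpoint shown equals the highest concentration tested. Otherwise, values were interpolated linearly from a five-concentration, 48-hour dose response in 96-well plates. Here, GI50 denotes the concentration required for 50% inhibition of growth.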 Activity calls are given as the source filed them. No stated cut-off is given here; in the data, active = GI50 up to about 1.1 µM and inactive = higher.

Columns and labels:
Assay in all cases: NCI tumour cell line growth inhibition, 48 h
[1] = test system: DU-145
[2] = test system: MOLT-4
[3] = test system: UACC-62
[4] = test system: TK-10
[5] = test system: SR
[6] = test system: Malme-3M
[7] = test system: RXF 393
[8] = test system: SF-295
[9] = test system: NCI/ADR-RES
[10] = test system: COLO 205
[11] = test system: SNB-19
[12] = test system: LOX IMVI
[13] = test system: CAKI-1
[14] = test system: Hs-578T
[15] = test system: EKVX
[16] = test system: SK-MEL-28
[17] = test system: OVCAR-8
[18] = test system: PC-3
[19] = test system: UACC-257
[20] = test system: SK-MEL-5
[21] = test system: SF-268
[22] = test system: OVCAR-3
[23] = test system: T47D
[24] = test system: U-251
[25] = test system: SW-620
[26] = test system: NCI-H226
[27] = test system: OVCAR-4
[28] = test system: HOP-62
[29] = test system: SN12C
[30] = test system: BT-549
[31] = test system: SNB-75
[32] = test system: A549
[33] = test system: HCC 2998
[34] = test system: NCI-H522
[35] = test system: HT-29
[36] = test system: HL-60
[37] = test system: NCI-H460
[38] = test system: IGROV-1
[39] = test system: K562
[40] = test system: NCI-H23
[41] = test system: OVCAR-5
[42] = test system: MDA-MB-231
[43] = test system: SK-MEL-2
[44] = test system: M14
[45] = test system: CCRF-CEM
[46] = test system: UO-31
[47] = test system: KM12
[48] = test system: SK-OV-3
[49] = test system: HCT-116
[50] = test system: HCT-15
[51] = test system: MDA-N
[52] = test system: RPMI-8226
[53] = test system: MDA-MB-435
[54] = test system: MCF7
[55] = test system: 786-0
[56] = test system: SF-539
[57] = test system: HOP-92
[58] = test system: A498
[59] = test system: ACHN

Measured: GI50

COc1ccc(/C=C/c2cc(=O)cc(/C=C/c3ccc(OC)c(O)c3)o2)cc1O
inactive: [1] 2920 nM | [2] 2240 nM | [3] 1750 nM | [4] 4260 nM | [6] 2160 nM | [8] 3520 nM | [9] 2890 nM | [10] 11200 nM | [11] 4840 nM | [12] 1760 nM | [13] 3550 nM | [14] 3500 nM | [15] 4520 nM | [16] 3560 nM | [17] 2910 nM | [18] 3260 nM | [19] 2040 nM | [20] 1880 nM | [21] 3020 nM | [22] 2520 nM | [23] 1980 nM | [24] 1940 nM | [25] 2710 nM | [26] 5210 nM | [27] 2810 nM | [28] 3410 nM | [29] 3170 nM | [30] 2650 nM | [31] 3820 nM | [32] 3140 nM | [33] 1780 nM | [34] 2240 nM | [35] 1980 nM | [36] 2000 nM | [37] 2210 nM | [38] 3220 nM | [39] 2420 nM | [40] 2430 nM | [41] 9400 nM | [42] 2050 nM | [43] 2690 nM | [44] 2310 nM | [45] 2820 nM | [46] 3830 nM | [47] 1990 nM | [48] 5660 nM | [49] 2430 nM | [51] 1440 nM | [54] 2140 nM | [55] 3060 nM | [56] 1980 nM | [57] 3390 nM | [58] 3530 nM | [59] 2480 nM
active: [5] 1020 nM | [7] 1110 nM | [52] 317 nM | [53] 971 nM
2290 nM: [50]

CCC1(O)C(=O)OCc2c1cc1n(c2=O)Cc2cc3ccccc3nc2-1 (stereo not drawn)
239 nM: [50]
active: [1] 18 nM | [2] < 10 nM | [3] 12.8 nM | [5] < 10 nM | [6] 431 nM | [7] 73 nM | [8] < 10 nM | [9] 44.4 nM | [10] 101 nM | [11] 14.3 nM | [12] < 15.2 nM | [13] < 10 nM | [15] 86.9 nM | [16] 334 nM | [17] 65.3 nM | [19] 417 nM | [20] 47.3 nM | [21] < 16.8 nM | [22] 308 nM | [23] 23.7 nM | [24] 26.1 nM | [25] 167 nM | [26] 277 nM | [27] 504 nM | [28] < 14.9 nM | [29] 70.3 nM | [30] 211 nM | [31] < 21.5 nM | [32] 22.1 nM | [33] 895 nM | [34] 47.1 nM | [35] 65.3 nM | [36] 17 nM | [37] < 40.3 nM | [38] 63.5 nM | [39] 45.5 nM | [40] < 18.8 nM | [41] 347 nM | [42] 857 nM | [43] 575 nM | [44] < 10 nM | [45] < 12.2 nM | [46] 23.5 nM | [47] 221 nM | [48] 31.2 nM | [49] 48 nM | [51] 81.7 nM | [52] 48 nM | [53] 139 nM | [54] 40.5 nM | [55] 27.9 nM | [56] 15.7 nM | [57] 120 nM | [58] 940 nM | [59] 153 nM
inactive: [4] 6730 nM | [14] 7730 nM | [18] 2030 nM
